Measurements reported in the supplement of paper PMC10307832.

Columns and labels:
Test in all cases: relative viability (nuclei count vs DMSO), 5 days (fraction); higher = more cells survive
[1] = compound: C[C@H]([C@@H](C(=O)N)NC(=O)[C@@H]1CSSC[C@@H](C(=O)N[C@H](C(=O)N[C@@H](C(=O)N[C@H](C(=O)N1)CCCCN)CC2=CNC3=CC=CC=C32)CC4=CC=C(C=C4)O)NC(=O)[C@@H](CC5=CC=CC=C5)N)O [CAP-232] + N=C(N)NC(=N)NCCc1ccccc1 [Phenformin] (partner 250 µM)
Outline: (§1)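 Values are medians from duplicate plates. Each reflects relative viability, defined as the nuclei count of treated wells over that of vehicle wells. Lung cancer cell lines in 1536-well plates were pin-tool dosed one day after seeding with one drug alone or with a fixed anchor-drug dose plus five library-drug doses (not always all listed) in √10 steps, then fixed, stained and imaged at 4× after 5 days.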

[2] = compound: C[C@H]([C@@H](C(=O)N)NC(=O)[C@@H]1CSSC[C@@H](C(=O)N[C@H](C(=O)N[C@@H](C(=O)N[C@H](C(=O)N1)CCCCN)CC2=CNC3=CC=CC=C32)CC4=CC=C(C=C4)O)NC(=O)[C@@H](CC5=CC=CC=C5)N)O [CAP-232] + Cc1nc(Nc2ncc(C(=O)Nc3c(C)cccc3Cl)s2)cc(N2CCN(CCO)CC2)n1 [Dasatinib] (partner 0.075 µM)
Outline: as §1

[3] = compound: C[C@H]([C@@H](C(=O)N)NC(=O)[C@@H]1CSSC[C@@H](C(=O)N[C@H](C(=O)N[C@@H](C(=O)N[C@H](C(=O)N1)CCCCN)CC2=CNC3=CC=CC=C32)CC4=CC=C(C=C4)O)NC(=O)[C@@H](CC5=CC=CC=C5)N)O [CAP-232] + CCNC(=O)c1noc(-c2cc(C(C)C)c(O)cc2O)c1-c1ccc(CN2CCOCC2)cc1 [Luminespib] (partner 0.01 µM)
Outline: as §1

[4] = compound: C[C@H]([C@@H](C(=O)N)NC(=O)[C@@H]1CSSC[C@@H](C(=O)N[C@H](C(=O)N[C@@H](C(=O)N[C@H](C(=O)N1)CCCCN)CC2=CNC3=CC=CC=C32)CC4=CC=C(C=C4)O)NC(=O)[C@@H](CC5=CC=CC=C5)N)O [CAP-232] + Cc1cc(Nc2cc(N3CCN(C)CC3)nc(Sc3ccc(NC(=O)C4CC4)cc3)n2)n[nH]1 [Tozasertib] (partner 0.1 µM)
Outline: as §1

[5] = compound: C[C@H]([C@@H](C(=O)N)NC(=O)[C@@H]1CSSC[C@@H](C(=O)N[C@H](C(=O)N[C@@H](C(=O)N[C@H](C(=O)N1)CCCCN)CC2=CNC3=CC=CC=C32)CC4=CC=C(C=C4)O)NC(=O)[C@@H](CC5=CC=CC=C5)N)O [CAP-232] + COc1cccc2cc(-c3nc([C@H]4CC[C@H](C(=O)O)CC4)n4ncnc(N)c34)[nH]c12 [OSI-027] (partner 0.5 µM)
Outline: as §1

[6] = compound: C[C@H]([C@@H](C(=O)N)NC(=O)[C@@H]1CSSC[C@@H](C(=O)N[C@H](C(=O)N[C@@H](C(=O)N[C@H](C(=O)N1)CCCCN)CC2=CNC3=CC=CC=C32)CC4=CC=C(C=C4)O)NC(=O)[C@@H](CC5=CC=CC=C5)N)O [CAP-232] + COc1cc2c(Oc3ccc(NC(=O)C4(C(=O)Nc5ccc(F)cc5)CC4)cc3F)ccnc2cc1OCCCN1CCOCC1 [Foretinib] (partner 0.25 µM)
Outline: as §1

[7] = compound: C[C@H]([C@@H](C(=O)N)NC(=O)[C@@H]1CSSC[C@@H](C(=O)N[C@H](C(=O)N[C@@H](C(=O)N[C@H](C(=O)N1)CCCCN)CC2=CNC3=CC=CC=C32)CC4=CC=C(C=C4)O)NC(=O)[C@@H](CC5=CC=CC=C5)N)O [CAP-232]
Outline: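 Viability was defined as treated-well nuclei divided by vehicle-well nuclei, with the median taken over replicate plates. Cells from lung cancer lines sat overnight at 37 °C in 1536-well plates, received five √10-spaced library-drug doses by pinning on vehicle-anchored plates, and grew 5 days without medium change before one-step fixation, permeabilisation and Hoechst staining, 4× imaging and MetaXpress nuclear counts. Only plates with control CV under 25% and at least one doubling were kept.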

[8] = compound: C[C@H]([C@@H](C(=O)N)NC(=O)[C@@H]1CSSC[C@@H](C(=O)N[C@H](C(=O)N[C@@H](C(=O)N[C@H](C(=O)N1)CCCCN)CC2=CNC3=CC=CC=C32)CC4=CC=C(C=C4)O)NC(=O)[C@@H](CC5=CC=CC=C5)N)O [CAP-232] + O=C(c1cc(Cc2n[nH]c(=O)c3ccccc23)ccc1F)N1CCN(C(=O)C2CC2)CC1 [Olaparib] (partner 8 µM)
Outline: as §1

[9] = compound: C[C@H]([C@@H](C(=O)N)NC(=O)[C@@H]1CSSC[C@@H](C(=O)N[C@H](C(=O)N[C@@H](C(=O)N[C@H](C(=O)N1)CCCCN)CC2=CNC3=CC=CC=C32)CC4=CC=C(C=C4)O)NC(=O)[C@@H](CC5=CC=CC=C5)N)O [CAP-232] + CC1(C)CCC(c2ccc(Cl)cc2)=C(CN2CCN(c3ccc(C(=O)NS(=O)(=O)c4ccc(N[C@H](CCN5CCOCC5)CSc5ccccc5)c(S(=O)(=O)C(F)(F)F)c4)cc3)CC2)C1 [Navitoclax] (partner 0.5 µM)
Outline: as §1

[10] = compound: C[C@H]([C@@H](C(=O)N)NC(=O)[C@@H]1CSSC[C@@H](C(=O)N[C@H](C(=O)N[C@@H](C(=O)N[C@H](C(=O)N1)CCCCN)CC2=CNC3=CC=CC=C32)CC4=CC=C(C=C4)O)NC(=O)[C@@H](CC5=CC=CC=C5)N)O [CAP-232] + Cc1nc(NC(=O)N2CCC[C@H]2C(N)=O)sc1-c1ccnc(C(C)(C)C(F)(F)F)c1 [Alpelisib] (partner 2 µM)
Outline: as §1

[11] = compound: C[C@H]([C@@H](C(=O)N)NC(=O)[C@@H]1CSSC[C@@H](C(=O)N[C@H](C(=O)N[C@@H](C(=O)N[C@H](C(=O)N1)CCCCN)CC2=CNC3=CC=CC=C32)CC4=CC=C(C=C4)O)NC(=O)[C@@H](CC5=CC=CC=C5)N)O [CAP-232] + CC(C)C[C@H](NC(=O)[C@H](Cc1ccccc1)NC(=O)c1cnccn1)B(O)O [Bortezomib] (partner 0.002 µM)
Outline: as §1

[12] = compound: C[C@H]([C@@H](C(=O)N)NC(=O)[C@@H]1CSSC[C@@H](C(=O)N[C@H](C(=O)N[C@@H](C(=O)N[C@H](C(=O)N1)CCCCN)CC2=CNC3=CC=CC=C32)CC4=CC=C(C=C4)O)NC(=O)[C@@H](CC5=CC=CC=C5)N)O [CAP-232] + CS(=O)(=O)CCNCc1ccc(-c2ccc3ncnc(Nc4ccc(OCc5cccc(F)c5)c(Cl)c4)c3c2)o1 [Lapatinib] (partner 2 µM)
Outline: as §1

[13] = compound: C[C@H]([C@@H](C(=O)N)NC(=O)[C@@H]1CSSC[C@@H](C(=O)N[C@H](C(=O)N[C@@H](C(=O)N[C@H](C(=O)N1)CCCCN)CC2=CNC3=CC=CC=C32)CC4=CC=C(C=C4)O)NC(=O)[C@@H](CC5=CC=CC=C5)N)O [CAP-232] + CS(=O)(=O)N1CCN(Cc2cc3nc(-c4cccc5[nH]ncc45)nc(N4CCOCC4)c3s2)CC1 [Pictilisib] (partner 1 µM)
Outline: as §1

[14] = compound: C[C@H]([C@@H](C(=O)N)NC(=O)[C@@H]1CSSC[C@@H](C(=O)N[C@H](C(=O)N[C@@H](C(=O)N[C@H](C(=O)N1)CCCCN)CC2=CNC3=CC=CC=C32)CC4=CC=C(C=C4)O)NC(=O)[C@@H](CC5=CC=CC=C5)N)O [CAP-232] + C[C@]1(O)C[C@@H](c2nc(-c3ccc4ccc(-c5ccccc5)nc4c3)c3c(N)nccn32)C1 [Linsitinib] (partner 1 µM)
Outline: as §1

[15] = compound: C[C@H]([C@@H](C(=O)N)NC(=O)[C@@H]1CSSC[C@@H](C(=O)N[C@H](C(=O)N[C@@H](C(=O)N[C@H](C(=O)N1)CCCCN)CC2=CNC3=CC=CC=C32)CC4=CC=C(C=C4)O)NC(=O)[C@@H](CC5=CC=CC=C5)N)O [CAP-232] + C[C@@H](Oc1cc(-c2cnn(C3CCNCC3)c2)cnc1N)c1c(Cl)ccc(F)c1Cl [Crizotinib] (partner 1 µM)
Outline: as §1

NCI-H1623 showed a relative viability ([1]; first compound 0.4 µM) of 0.589, a relative viability ([1]; first compound 1.265 µM) of 0.579 and a relative viability ([1]; first compound 4 µM) of 0.603. For the same cell line, the relative viability ([1]; first compound 12.65 µM) was 0.566, the relative viability ([2]; first compound 0.4 µM) was 0.612 and the relative viability ([2]; first compound 1.265 µM) was 0.47. For the same cell line, the relative viability ([2]; first compound 4 µM) was 0.521, the relative viability ([2]; first compound 12.65 µM) was 0.742 and the relative viability ([3]; first compound 0.4 µM) was 0.503. The relative viability ([3]; first compound 1.265 µM) was 0.467, the relative viability ([3]; first compound 4 µM) was 0.557 and the relative viability ([3]; first compound 12.65 µM) was 0.359. It also gave a relative viability ([4]; first compound 0.4 µM) of 0.713, a relative viability ([4]; first compound 1.265 µM) of 0.411 and a relative viability ([4]; first compound 4 µM) of 0.465. For the same cell line, the relative viability ([4]; first compound 12.65 µM) was 0.632, the relative viability ([5]; first compound 0.4 µM) was 0.412 and the relative viability ([5]; first compound 1.265 µM) was 0.495. For the same cell line, the relative viability ([5]; first compound 4 µM) was 0.488, the relative viability ([5]; first compound 12.65 µM) was 0.38 and the relative viability ([6]; first compound 0.4 µM) was 0.945. It also gave a relative viability ([6]; first compound 1.265 µM) of 0.802, a relative viability ([6]; first compound 4 µM) of 0.849 and a relative viability ([6]; first compound 12.65 µM) of 0.769. For the same cell line, the relative viability ([7]; 0.4 µM) was 1.06, the relative viability ([7]; 1.265 µM) was 1.02 and the relative viability ([7]; 4 µM) was 0.92. The relative viability ([7]; 12.65 µM) was 1.01.

For NCI-H1299, the relative viability ([8]; first compound 0.4 µM) was 0.942, the relative viability ([8]; first compound 1.265 µM) was 1.01 and the relative viability ([8]; first compound 4 µM) was 0.977. It also gave a relative viability ([8]; first compound 12.65 µM) of 0.934, a relative viability ([9]; first compound 0.4 µM) of 1.04 and a relative viability ([9]; first compound 1.265 µM) of 0.991. The relative viability ([9]; first compound 4 µM) was 1.1, the relative viability ([9]; first compound 12.65 µM) was 1.1 and the relative viability ([10]; first compound 0.4 µM) was 1.04. The relative viability ([10]; first compound 1.265 µM) was 1.05, the relative viability ([10]; first compound 4 µM) was 1.03 and the relative viability ([10]; first compound 12.65 µM) was 1.08. The relative viability ([11]; first compound 0.4 µM) was 1.02, the relative viability ([11]; first compound 1.265 µM) was 1.02 and the relative viability ([11]; first compound 4 µM) was 1.06. It also gave a relative viability ([11]; first compound 12.65 µM) of 1.01, a relative viability ([12]; first compound 0.4 µM) of 1.03 and a relative viability ([12]; first compound 1.265 µM) of 0.963. The relative viability ([12]; first compound 4 µM) was 0.908, the relative viability ([12]; first compound 12.65 µM) was 0.96 and the relative viability ([13]; first compound 0.4 µM) was 0.747. The relative viability ([13]; first compound 1.265 µM) was 0.746, the relative viability ([13]; first compound 4 µM) was 0.626 and the relative viability ([13]; first compound 12.65 µM) was 0.589. The relative viability ([14]; first compound 0.4 µM) was 1.15, the relative viability ([14]; first compound 1.265 µM) was 0.92 and the relative viability ([14]; first compound 4 µM) was 1.06. For the same cell line, the relative viability ([14]; first compound 12.65 µM) was 1.09, the relative viability ([15]; first compound 0.4 µM) was 0.955 and the relative viability ([15]; first compound 1.265 µM) was 0.952. For the same cell line, the relative viability ([15]; first compound 4 µM) was 0.941, the relative viability ([15]; first compound 12.65 µM) was 1.02 and the relative viability ([6]; first compound 0.4 µM) was 1.09. It also gave a relative viability ([6]; first compound 1.265 µM) of 1.06, a relative viability ([6]; first compound 4 µM) of 1.08 and a relative viability ([6]; first compound 12.65 µM) of 1.05. The relative viability ([7]; 0.4 µM) was 1.03, the relative viability ([7]; 1.265 µM) was 1.01 and the relative viability ([7]; 4 µM) was 1.04. For the same cell line, the relative viability ([7]; 12.65 µM) was 1.02.
